In patent US20240352020A1, “PYRAZOLE-CONTAINING CBP/CATENIN ANTAGONISTS AND USES THEREOF” (3+2 PHARMA, LLC, priority 2021, published 2024):

Legend:
[1] = tested on: CBP/β-Catenin; test: SuperTOPFLASH cell-based luciferase assay (Wnt-driven Luciferase Activity in Stably Transfected Cell Line, Hek293, STF1.1)
Experimental: SuperTOPFLASH Cell-based Luciferase Assay. Hek-293, STF1.1 cells are maintained in DMEM, 10% FBS, Pen-Strep supplemented with 200 μg/mL G418. On the day prior to assay, cells are split into a white, opaque 96-well plate at 10,000 cells per well in 50 μL of complete medium without G418 (for screening of Wnt-signaling inhibitors, G418 can be left out during screening process). After allowing the cells to stabilize and attach overnight, 40 μL of complete medium (without G418) containing 2.5× final concentration of compound or DMSO control is added to the cells and allowed to incubate for 1 hour at 37° C., 5% CO2 prior to adding 10 μL of a 100 mM LiCl solution prepared in complete medium (without G418). After 24 hours, 100 μL of BrightGlo (Promega, Cat. #: G7573) is added to each well and the plate is shaken for 5 minutes prior to reading on the Perkin-Elmer EnVision Plate Reader. For example, on the day prior to assay: cells are split into a white opaque 96-well plate at 10,000 cells per well in 50 μL of complete growth medium; the plate is incubated overnight at 37° C., 5% CO2 and the cells allowed to attach; the next day inhibitors to be tested are prepared in complete growth medium at 2.5× the desired final concentration (all conditions are done in duplicates), and 40 μL of the medium containing the 2.5× concentration of compound is added to each well (include 2 wells for stimulation control, 2 wells for DMSO control, and wells for the positive control ICG-001 (e.g., 2, 5, and 10 micromolar)); once all inhibitors and controls are added, incubate the plate for 1 hour at 37° C., 5% CO2 (while plate is incubating, prepare fresh 100 mM LiCl in complete growth medium); after 1 hour, the plate is removed from the incubator and 10 μL of the medium containing 100 mM LiCl are added to each well (except for the two wells of the unstimulated control, to which […] of just complete medium is added); the plate is incubated for 24 hours at 37° C., 5% CO2; after 24 hours, 100 microliters of BrightGlo (Promega, Cat. #: G7573) is added to each well, the plate is shaken for 5 minutes to ensure complete lysis, and the plate is then read on a Perkin-Elmer EnVision 96-well plate reader.

[2] = intravenous, patients with HCV cirrhosis, cited from earlier work
[3] = tested on: T memory stem cells (SCM) and central memory T-cells (CM); conditions: ART-suppressed SIVmac251-infected RMs; cited from earlier work
[4] = FIG. 1, compounds 0.078 μM to 10 μM, ICG-001 positive control at 0.62-20 μM
[5] = FIG. 2, compounds 0.625 μM to 5 μM, ICG-001 positive control at 2.5, 5 and 10 μM
[6] = 10 and 40 mg/m^2/day for 12 weeks

With `O=C1[C@H](Cc2ccc(O)cc2)N2C(=O)CN(Cc3cnn(-c4ccccc4)c3)N(C(=O)NCc3ccccc3)[C@H]2CN1Cc1cccc2ncccc12` [Compound 1, (6S,9aS)—N-benzyl-6-(4-hydroxybenzyl)-4,7-dioxo-2-((1-phenyl-1H-pyrazol-4-yl)methyl)-8-(quinolin-5-ylmethyl)octahydro-1H-pyrazino[2,1-c][1,2,4]triazine-1-carboxamide] the “CBP/β-Catenin inhibition activity: potency compared with ICG-001” value [1, 4] was “greater potency than that of ICG-001” and the “CBP/β-Catenin inhibition activity: potency compared between compounds 1 and 2” value ([1]; FIG. 1, concentrations between 0.078 μM and 10 μM) was “greater potency than that of compound 2”.
For `O=C1[C@H](Cc2ccc(O)cc2)N2C(=O)CN(Cc3cnn(-c4ccccc4)c3)N(C(=O)NCc3ccccc3)[C@H]2CN1Cc1cccc2cccnc12` [Compound 4, (6S,9aS)—N-benzyl-6-(4-hydroxybenzyl)-4,7-dioxo-2-((1-phenyl-1H-pyrazol-4-yl)methyl)-8-(quinolin-8-ylmethyl)octahydro-1H-pyrazino[2,1-c][1,2,4]triazine-1-carboxamide], the “CBP/β-Catenin inhibition activity: potency compared with ICG-001” value [1, 5] was “greater potency than that of ICG-001” and the “CBP/β-Catenin inhibition activity: potency compared between compounds 3 and 4” value ([1]; FIG. 2, concentrations between 0.625 μM and 5 μM) was “greater potency than that of compound 3”.
In the case of `O=C1[C@H](Cc2ccc(O)cc2)N2C(=O)CN(Cc3cnn(-c4ccccc4)c3Br)N(C(=O)NCc3ccccc3)[C@H]2CN1Cc1cccc2ncccc12` [Compound 2, (6S,9aS)—N-benzyl-2-((5-bromo-1-phenyl-1H-pyrazol-4-yl)methyl)-6-(4-hydroxybenzyl)-4,7-dioxo-8-(quinolin-5-ylmethyl)octahydro-1H-pyrazino[2,1-c][1,2,4]triazine-1-carboxamide], the “CBP/β-Catenin inhibition activity: potency compared with ICG-001” value [1, 4] is reported as “greater potency than that of ICG-001”.
In the case of `O=C1[C@H](Cc2ccc(O)cc2)N2C(=O)CN(Cc3ccn(-c4ccccc4)n3)N(C(=O)NCc3ccccc3)[C@H]2CN1Cc1cccc2cccnc12` [Compound 3, (6S,9aS)—N-benzyl-6-(4-hydroxybenzyl)-4,7-dioxo-2-((1-phenyl-1H-pyrazol-3-yl)methyl)-8-(quinolin-8-ylmethyl)octahydro-1H-pyrazino[2,1-c][1,2,4]triazine-1-carboxamide], the “CBP/β-Catenin inhibition activity: potency compared with ICG-001” value [1, 5] is reported as “greater potency than that of ICG-001”.
In the case of `C[C@H]1[C@H]2N(C(=O)CN(C)N2C(=O)NCc2ccccc2)[C@@H](Cc2ccc(OP(=O)(O)O)cc2)C(=O)N1Cc1cccc2cccnc12` [PRI-724], the Safety ([2]; 10 and 40 mg/m^2/day for 12 weeks (1 week on and 1 week off)) is listed as “appeared to be safe”, the “Liver histology and Child Pugh scores” value [2, 6] is listed as “improvement in liver histology and Child Pugh scores in several patients” and the “Plasma exposure of the drug” value [2, 6] is listed as “dose-dependent plasma exposure”. For the same molecule, the “Proliferation of T memory stem cells (SCM) and central memory (CM) T-cells” value [3] was “decrease proliferation”.
